Each structure is given as a SMILES string. Converted amounts (≈) assume the structure as drawn. Where only a bound is given, the exact number is not on record here.

The term solubility denotes how much of the substance goes into solution per volume. Read a high solubility as a readily soluble substance.

What all share (format): physicochemical
Data set [1] is described as follows: Solubility test, suspension filtered and filtrate analyzed by HPLC. Particulars: thermodynamic from solid, 25° C. The procedure: The suspension was centrifuged under 200 rpm at 25° C., and 0.3 mL to 0.5 mL of […]. At each time point, the suspension was filtered to remove solid, and the filtrate was analyzed by HPLC.
(§1) The solubilities of the three salts and the Compound 1 were studied in pH 6.8 buffer and water, and the data was summarized in Table 5.

Data set [2] can be described thus: Solubility test by visual observation. Particulars: thermodynamic from solid; for solubility: both water and pH 6.8 buffer; for solubility at 0.5 h: visual observation. The procedure:
The solubilities of 1-Na and 1-K salts were very high, so the solubility was determined by visual observation. Weighed about 5 mg of sample solid (1-Na or 1-K salt) into a 2 mL of vial, and then added 5 uL of pH 6.8 buffer solution or water each time until the solids was dissolved.
as §1

The nature of data set [3]: Dynamic moisture sorption (DVS). Particulars: at 80% RH. The procedure:
DYNAMIC MOISTURE SORPTION: Dynamic moisture adsorption and desorption were studied using IGA sorp (Hiden Isochema Ltd. Warrington, UK). About 3-5 mg of prepared sample was placed in a sample basket and hung in the measuring chamber of an IGA Sorp. For an isotherm test, the chamber temperature is maintained by a water bath at constant 25±1° C. The sample was tested at a targeted RH of 10 to 90% full cycle in step mode. The analysis was performed in 10% RH increments. Time duration at each RH was set as min.30 minutes to max. 120 min, so that the sample could reach equilibrium with the chamber environment. Data was collected in 3 minutes increment.

For `N#Cc1ccc(-c2cnccc2SCC2(CC(=O)O)CC2)cc1` [Compound 1, 2-(1-(((3-(4-cyanophenyl)pyridin-4-yl)thio)methyl)cyclopropyl)acetic acid], the solubility at 0.5 h in data set [1] (aqueous buffer, pH 6.8 buffer) came out at 83 µg/mL (≈ 256 µM); in data set [1] (water), 19 µg/mL (≈ 58.6 µM). The solubility at 2 h in data set [1] (aqueous buffer, pH 6.8 buffer) stood at 84 µg/mL (≈ 259 µM); in data set [1] (water), 34 µg/mL (≈ 105 µM).

Take `N#Cc1ccc(-c2cnccc2SCC2(CC(=O)[O-])CC2)cc1.[Na+]` [1-Na salt, sodium 2-(1-(((3-(4-cyanophenyl)pyridin-4-yl)thio)methyl)cyclopropyl)acetate]: the solubility in data set [2] (aqueous buffer) was above 400000 µg/mL. In addition, the solubility at 0.5 h in data set [2] (aqueous buffer, pH 6.8 buffer) is above 400000 µg/mL; in data set [2] (water), above 400000 µg/mL. In data set [3], the “Water adsorbed (hygroscopicity)” value came out at 8.28%.

In data set [2] (aqueous buffer), `N#Cc1ccc(-c2cnccc2SCC2(CC(=O)[O-])CC2)cc1.[K+]` [1-K salt, potassium 2-(1-(((3-(4-cyanophenyl)pyridin-4-yl)thio)methyl)cyclopropyl)acetate] gave a solubility above 400000 µg/mL. Also, the solubility at 0.5 h in data set [2] (aqueous buffer, pH 6.8 buffer) was above 400000 µg/mL; in data set [2] (water), above 400000 µg/mL. Also, in data set [3], the “Water adsorbed (hygroscopicity)” value is given as 50.63%.

The values are drawn from patent publication US11685720B2, “Salt forms of URAT-1 inhibitors” (INVENTISBIO CO., LTD., priority 2018, dated 2023).
